Where two headings read alike, the source gives them in different places. Marks after values point to notes of the source that are not given here.
Legend:
[1] = test system: NR8383 cell line and granule fraction (containing lysosomes); conditions: NH4Cl 10 mM, drug 50 µM, ref (12), cited from earlier work
[2] = Lysosomal sequestration studies in NR8383 with NH4Cl, monensin and nigericin; conditions: rat; for Kp at 10 min, 5 μM: NR8383, 5 μM drug; for Kp at 10 min, 20 µM: NR8383, 20 µM drug
Protocol: (§1) The extent of accumulation of drugs in lysosomes was assessed using the same uptake methodology, as described above in the absence and presence of NH4Cl and ionophores, monensin and nigericin. […] In addition, a range of incubation conditions was explored, including pre-incubation and co-incubation alone and combined together. Once the conditions were optimised, further experiments were performed with 20 mM NH4Cl co-incubated with investigated drugs. […] For incubations with monensin and nigericin, all drugs were prepared at 5 μM concentration and the incubations were carried out for 5 min (single time point). Following the treatment of the cell monolayers with drug alone or drug with the agents mentioned, incubations were stopped by washing of the cells with ice-cold DPBS as described above, followed by cell lysis in deionised water. All incubations were carried out in duplicate and experiments were performed for three separate occasions. The removed incubation media were retained for the measurement of drug concentrations and subsequent determination of Kp for each compound. Analysis of samples in LC-MS/MS was performed after cells were kept at −20°C overnight.
(§2) Kp and CLuptake were determined as described above for each drug both under control condition and in the presence of a chemical agent affecting the pH gradient between cytosol and lysosomes. The reduction in Kp and CLuptake of each drug in the presence of the chemical agents was expressed as a percentage relative to control and used as an indicator of the extent of lysosomal sequestration. A 50% reduction in both parameters was set as a cut-off for lysosomal accumulation, while also taking into account the physicochemical properties of the compounds (Table I) and the uncertainty associated with the experimental data.
(§3) The in vitro parameters were calculated on at least three separate occasions and the mean data were reported. When assessing the extent of lysosomal sequestration, the control and chemical agent treated cells were compared using the two-tailed, paired t-test in order to determine statistically significant difference between the two conditions. Values were reported as significant when p < 0.05.

[3] = test system: NR8383 cells; test: as above; conditions: for % Reduction in Kp by NH4Cl: NH4Cl 20 mM; for reduction in Kp in the presence of chemical agents (summary in Discussion): NR8383, NH4Cl, monensin, nigericin
Protocol: as §1, §2, §3

[4] = Physicochemical properties, experimental literature values (Table I); conditions: classification in Table I
[5] = Drug uptake in NR8383 at 37 and 4°C (CLuptake, CLdiff, Kp); conditions: rat
Protocol: (§4) The studies were carried out in a 24-well plate format and the in vitro conditions were optimised in terms of cell detachment method from culture flasks, coating type of 24-well plates, seeding density, culturing time and drug incubation time points. Briefly, for cell detachment, gentle scraping versus Mg^2+-Ca^2+ free DPBS treatment of cells in culture flasks were tested. Considering the semi-adherent nature of AMs, cell seeding into non-coated, collagen-I and poly-D-lysine coated 24-well plates was investigated for cell attachment, distribution in the wells and detachment following DPBS washes during the uptake experiments. In addition, seeding densities of 0.36 and 0.72 × 10^6 cells per well were assessed with respect to cell attachment, confluency following culture (plating efficiency) and potential cell detachment following DPBS washes. Culturing time ranging from 4 to 24 h was investigated for optimal cell attachment before carrying out uptake experiments. Uptake rate and Kp data were normalised by cell number determined indirectly by measuring the amount of protein in samples by bicinchoninic acid (BCA) protein assay (Thermo Scientific, Loughborough, UK). Following the optimisation, detachment of NR8383 from cell culture flasks was performed by gentle scraping prior to cell counting and seeding into collagen-I coated 24-well plates at 0.5 × 10^6 cells per well. Cells were cultured for 16 h at 37°C, 5% CO2 (CO2 incubator, MCO-17AIC, Sanyo Biomedical, Loughborough, UK) before uptake studies performed over 1 to 10 min period.
(§5) The drug uptake in NR8383 corresponding to these conditions was described by total uptake (CLuptake) and passive diffusion (CLdiff) clearance terms, respectively. […] Substrate solutions were prepared by dilution of the stock solutions in DPBS resulting in final DMSO content < 1%. Uptake studies were performed in the presence of 1 mM ABT, a nonspecific P450 inhibitor, in order to avoid any potential impact of phase I metabolism. […] Following microscopy, the CGM was removed, cells were washed twice with 800 μL of either pre-warmed or ice-cold DPBS (for experiments at 37 and 4°C, respectively) and pre-incubation with 500 μL of pre-warmed or ice-cold ABT/DPBS was carried out for 20 min. Where ABT pre-treatment was not necessary, cell monolayers were treated with 500 μL of DPBS only. Once pre-incubation buffer was removed from the cell monolayers, incubations were started by addition of 400 μL of substrate solution (pre-warmed or ice-cold) in each well. Each substrate was incubated with the cells for 1, 2, 5 and 10 min and each time point at 37°C and 4°C. For 37°C experiments, incubation was carried out on a dry heater block maintained at 37°C throughout the experiment (Tecam Dri-block DB-3, Tecam, Princeton, NJ) and for 4°C experiments, the procedure was carried out on ice. Incubation with substrate was stopped by removal of the media with drug solution and washing the monolayers three times with 800 μL ice-cold DPBS. The back-diffusion of the drug from the cell into the medium was considered to be negligible under these conditions. The removed incubation media were retained for the measurement of drug medium concentrations and subsequent determination of Kp for each drug. The cells were lysed by addition of 200 μL ice-cold deionised water; cell lysates were kept at −20°C overnight and then processed further for LC-MS/MS analysis. Experiments were performed on three or more separate occasions for each drug investigated. […] The amount of protein per well was measured using a BSA calibration curve and absorbances read at 562 nm (S22 Boeco UV-Visible Spectrophotometer, Hamburg, Germany).

[6] = test system: NR8383 cells; test: as above; conditions: NR8383, 5 μM; for Contribution of passive (%): CLdiff relative to CLuptake
Protocol: as §4, §5

[7] = test system: Lung granule fraction containing lysosomes from male Wistar rats; design: method as in ref (6) (a number printed in a supplementary file, which may have a reference list of its own: not looked up in the article's list); conditions: NH4Cl 10 mM, drug 1 µM, 10 min; ref (6); cited from earlier work
[8] = cited from earlier work
[9] = test system: Lung tissue slices from male Wistar rats; design: method as in ref (5) (a number printed in a supplementary file, which may have a reference list of its own: not looked up in the article's list); conditions: NH4Cl 20 mM, drug 5 µM, 60 min, ref (5); cited from earlier work
[10] = test system: Lung tissue slices from male Wistar rats; design: method as in ref (9) (a number printed in a supplementary file, which may have a reference list of its own: not looked up in the article's list); conditions: drug 5 µM, 60 min, ref (9), cited from earlier work; for Reduction in total uptake (%): NH4Cl 20 mM
[11] = test system: Lung tissue slices from male Wistar rats; design: method as in ref (8) (a number printed in a supplementary file, which may have a reference list of its own: not looked up in the article's list); conditions: drug 5 µM, 60 min, ref (8), cited from earlier work; for Reduction in total uptake (%): NH4Cl 20 mM
[12] = test system: Lung tissue slices from male Wistar rats; design: method as in ref (14) (a number printed in a supplementary file, which may have a reference list of its own: not looked up in the article's list); conditions: monensin 10 µM, drug 5 µM, 60 min, ref (14); cited from earlier work
[13] = test system: NR8383 cells; test: LysoTracker Red (LTR) confocal assessment of lysosomal sequestration in NR8383; type: cell-based, rat; conditions: NH4Cl 20 mM, monensin 5 μM, nigericin 10 μM with 200 nM LTR
[14] = test system: Liver tissue slices from male Wistar rats; design: method as in ref (9) (a number printed in a supplementary file, which may have a reference list of its own: not looked up in the article's list); conditions: drug 5 µM, 60 min, ref (9), cited from earlier work; for Reduction in total uptake (%): NH4Cl 20 mM
[15] = test system: Brain slices from male Wistar rats; design: method as in ref (10) (a number printed in a supplementary file, which may have a reference list of its own: not looked up in the article's list); conditions: drug 5 µM, 60 min, ref (10), cited from earlier work; for Reduction in total uptake (%): NH4Cl 20 mM; for Reduction of total uptake (%): monensin 10 µM
[16] = test system: Liver tissue slices from male Wistar rats; design: method as in ref (14) (a number printed in a supplementary file, which may have a reference list of its own: not looked up in the article's list); conditions: monensin 10 µM, drug 5 µM, 60 min, ref (14); cited from earlier work
[17] = test system: Liver tissue slices from male Wistar rats; design: method as in ref (8) (a number printed in a supplementary file, which may have a reference list of its own: not looked up in the article's list); conditions: drug 5 µM, 60 min, ref (8), cited from earlier work; for Reduction in total uptake (%): NH4Cl 20 mM
[18] = test system: Lung tissue slices from male Sprague-Dawley rats; conditions: monensin 10 µM, desipramine, diazepam 5 µM, chloroquine, thiopental 10 µM, 60 min, ref (3); cited from earlier work
[19] = NR8383 cells, Kp + NH4Cl, 20 mM NH4Cl co-incubated, 10 min
[20] = NR8383 cells, Kp + NH4Cl, 20 mM NH4Cl
[21] = NR8383 cells, Kp Control, control
[22] = NR8383 cells, Kp (cell-to-medium concentration ratio), NR8383, 5 μM, 37°C, 10 min
[23] = experimental value, ref ([21])-([30]) per drug, Table I

CC[C@H]1OC(=O)[C@H](C)[C@@H](O[C@H]2C[C@@](C)(OC)[C@@H](O)[C@H](C)O2)[C@H](C)[C@@H](O[C@@H]2O[C@H](C)C[C@H](N(C)C)[C@H]2O)[C@](C)(O)C[C@@H](C)CN(C)[C@H](C)[C@@H](O)[C@]1(C)O [Azithromycin]
Reduction in total uptake (%) ([1]; Granule, after subcellular fractionation, 30 min): 72%
Reduction in total uptake (%) ([1]; before subcellular fractionation, azithromycin 120 min, clarithromycin 60 min): 97%

CCCC1O[C@@H]2C[C@H]3[C@@H]4CCC5=CC(=O)C=C[C@]5(C)[C@H]4[C@@H](O)C[C@]3(C)[C@]2(C(=O)CO)O1 (stereo partly shown) [Budesonide]
Kp at 10 min, 5 μM [2, 19]: 28.1 ± 7.12
Kp at 10 min, 20 µM [2, 20]: 31 ± 12
Kp at 10 min, 5 μM [2, 21]: 31.5 ± 8.46
Kp at 10 min, 20 µM [2, 21]: 34 ± 12.5
% Reduction in Kp by NH4Cl ([3]; NR8383, 5 μM drug): 10 ± 7.8%
% Reduction in Kp by NH4Cl ([3]; NR8383, 20 µM drug): 6.6 ± 4.1%
% Reduction in CLuptake by NH4Cl (20 mM) ([3]; NR8383, at 5 µM drug): 18 ± 15%
reduction in Kp in the presence of chemical agents (summary in Discussion) [3]: < 15%
Acid–base Property [4]: Neutral
Kp at 10 min, 5 μM [5, 22]: 37.6 ± 11.4
Contribution of passive (%) [6]: 97.2%

CN(C)CCCN1c2ccccc2Sc2ccc(Cl)cc21 [Chlorpromazine]
Reduction in total uptake (%) [7]: 8%

CC(Cc1ccc(O)cc1)NCC(O)c1cc(O)cc(O)c1 (stereo not shown) [Fenoterol]
Kp at 10 min, 5 μM ([2]; Kp + NH4Cl, 20 mM NH4Cl co-incubated, 10 min): 2.91 ± 2.11
Kp at 10 min, 20 µM ([2]; Kp + NH4Cl, 20 mM NH4Cl): 0.96 ± 0.33
Kp at 10 min, 5 μM ([2]; Kp Control, control): 4.25 ± 2.64
Kp at 10 min, 20 µM ([2]; Kp Control, control): 1.5 ± 0.93
% Reduction in Kp by NH4Cl ([3]; NR8383, 5 μM drug): 31 ± 23%
% Reduction in Kp by Monensin ([3]; NR8383, 5 μM drug, monensin 5 μM, 5 min): 27 ± 25%
% Reduction in Kp by Nigericin ([3]; NR8383, 5 μM drug, nigericin 10 μM, 5 min): 30 ± 12%
% Reduction in Kp by NH4Cl ([3]; NR8383, 20 µM drug): 27 ± 24%
% Reduction in CLuptake by Monensin (5 µM) ([3]; NR8383, at 5 µM drug): 29 ± 21%
% Reduction in CLuptake by NH4Cl (20 mM) ([3]; NR8383, at 5 µM drug): 36 ± 12%
% Reduction in CLuptake by Nigericin (10 µM) ([3]; NR8383, at 5 µM drug): 25 ± 15%
% Reduction in CLuptake by NH4Cl (20 mM) ([3]; NR8383, at 20 µM drug): 22 ± 28%
reduction in Kp in the presence of chemical agents (summary in Discussion) [3]: 20–40%
Acid–base Property [4]: Base
Kp at 10 min, 5 μM [5]: 5.69 ± 0.98
hepatocyte CLint at 5 μM ([5]; other cell line): < 1 µL/min/1e6 cells
Contribution of passive (%) [6]: 8.03%
LogD7.4 [8, 23]: 0.74

CNCCC(Oc1ccc(C(F)(F)F)cc1)c1ccccc1 (stereo not shown) [Fluoxetine]
Reduction in total uptake (%) [9]: 21%
Reduction in total uptake (%) [10]: 39%
Reduction in total uptake (%) [11]: 41%
Reduction of total uptake (%) [12]: 23%

Cl.N [NH4Cl, ammonium chloride]
reduced LTR fluorescent signal [13]: up to 85%

CC(C)=CCN1CCC2(C)c3cc(O)ccc3CC1C2C (stereo not shown) [Pentazocine]
Reduction in total uptake (%) [7]: 77%

CN1CCN(CCCN2c3ccccc3Sc3ccccc32)CC1 [Perazine]
Reduction in total uptake (%) [14]: 61%
Reduction of total uptake (%) ([14]; monensin 10 µM): 65%
Reduction in total uptake (%) [10]: 58%
Reduction of total uptake (%) ([10]; monensin 10 µM): 71.6%
Reduction in total uptake (%) [15]: 55%
Reduction of total uptake (%) [15]: 55%

CC(CN1c2ccccc2Sc2ccccc21)N(C)C (stereo not shown) [Promethazine]
Reduction in total uptake (%) [7]: 17%

CO[C@H]1/C=C/O[C@@]2(C)Oc3c(C)c(O)c4c(O)c(c(/C=N/N5CCN(C)CC5)c(O)c4c3C2=O)NC(=O)/C(C)=C\C=C\[C@H](C)[C@H](O)[C@@H](C)[C@@H](O)[C@@H](C)[C@H](OC(C)=O)[C@@H]1C [Rifampicin]
Acid–base Property [4]: Zwitterion
LogD7.4 [8, 23]: 0.3
pKa_b (basic pKa) [8, 23]: 6.70

CN[C@H]1CC[C@@H](c2ccc(Cl)c(Cl)c2)c2ccccc21 [Sertraline]
Reduction of total uptake (%) [16]: 19%
Reduction in total uptake (%) [14]: 29%
Reduction in total uptake (%) [9]: 42%
Reduction in total uptake (%) [10]: 45%
Reduction in total uptake (%) [17]: 42%
Reduction in total uptake (%) [11]: 40%
Reduction of total uptake (%) [12]: 50%

CC(C)(C)NCC(O)c1cc(O)cc(O)c1 (stereo not shown) [Terbutaline]
Kp at 10 min, 5 μM [2, 19]: 0.72 ± 0.31
Kp at 10 min, 20 µM [2, 20]: 0.56 ± 0.29
Kp at 10 min, 5 μM [2, 21]: 0.92 ± 0.39
Kp at 10 min, 20 µM [2, 21]: 0.79 ± 0.46
% Reduction in Kp by NH4Cl ([3]; NR8383, 5 μM drug): 21 ± 5.0%
% Reduction in Kp by NH4Cl ([3]; NR8383, 20 µM drug): 22^ a %
% Reduction in CLuptake by NH4Cl (20 mM) ([3]; NR8383, at 5 µM drug): 15 ± 15%
% Reduction in CLuptake by NH4Cl (20 mM) ([3]; NR8383, at 20 µM drug): 36 ± 23%
reduction in Kp in the presence of chemical agents (summary in Discussion) [3]: 20–40%
Acid–base Property [4]: Base
hepatocyte CLint at 5 μM ([5]; NR8383 cells): < 1 µL/min/1e6 cells
Kp at 10 min, 5 μM [5, 22]: ~1
Kp (cell-to-medium concentration ratio) ([6]; 37°C, 10 min): 0.69 ± 0.16
Contribution of passive (%) [6]: 47.6%
LogD7.4 ([8]; Average value of two studies, ref ([27],[28])): −1.50 ^b
pKa_a (acidic pKa) [8, 23]: 8.60
pKa_b (basic pKa) [8, 23]: 9.90

CCCC(C)C1(CC)C(=O)NC(=S)NC1=O (stereo not shown) [Thiopental]
Reduction of total uptake (%) [18]: 10%

CSc1ccc2c(c1)N(CCC1CCCCN1C)c1ccccc1S2 (stereo not shown) [Thioridazine]
Reduction in total uptake (%) [15]: 62%
Reduction of total uptake (%) [15]: 58%
Reduction in total uptake (%) [17]: 75%
Reduction of total uptake (%) ([17]; monensin 10 µM): 82%
Reduction in total uptake (%) [11]: 41%
Reduction of total uptake (%) ([11]; monensin 10 µM): 35%

C[N+]1(C)[C@@H]2C[C@@H](OC(=O)C(O)(c3cccs3)c3cccs3)C[C@H]1[C@@H]1O[C@@H]12 [Tiotropium bromide]
Kp at 10 min, 5 μM [2, 19]: 3.87 ± 2.61
Kp at 10 min, 20 µM [2, 20]: 2 ± 0.64
Kp at 10 min, 5 μM [2, 21]: 4.39 ± 2.9
Kp at 10 min, 20 µM [2, 21]: 2.4 ± 1
% Reduction in Kp by NH4Cl ([3]; NR8383, 5 μM drug): 12 ± 1.8%
% Reduction in Kp by NH4Cl ([3]; NR8383, 20 µM drug): 35 ± 26%
% Reduction in CLuptake by NH4Cl (20 mM) ([3]; NR8383, at 5 µM drug): 15 ^a %
% Reduction in CLuptake by NH4Cl (20 mM) ([3]; NR8383, at 20 µM drug): 28 ^a %
reduction in Kp in the presence of chemical agents (summary in Discussion) [3]: < 15%
Acid–base Property [4]: Permanently cationic
Kp at 10 min, 5 μM [5, 22]: 8.74 ± 7.24
Contribution of passive (%) [6]: 16.3%

— publication PMC4628094, “In Vitro Assessment of Uptake and Lysosomal Sequestration of Respiratory Drugs in Alveolar Macrophage Cell Line NR8383” (Pharmaceutical Research, 2015)
